# Assay results as given in ChEMBL document CHEMBL5390277, “Development of N-Terminally Modified Variants of the CXCR4-Antagonistic Peptide EPI-X4 for Enhanced Plasma Stability” (J Med Chem, 2023).
# Square brackets hold non-standard residues; d marks the D form. Peptide text beside a SMILES is read from it.
# How the values were obtained:
# [1] = molecular target: T1, C-X-C chemokine receptor type 4 (Homo sapiens, UniProt P61073); assay: Displacement of 12G5 mAb from CXCR4 in human SUP-T1 cells incubated for 2 hrs by flow cytometry analysis; assay type: cell-based
# T1 sequence (P61073 whole entry): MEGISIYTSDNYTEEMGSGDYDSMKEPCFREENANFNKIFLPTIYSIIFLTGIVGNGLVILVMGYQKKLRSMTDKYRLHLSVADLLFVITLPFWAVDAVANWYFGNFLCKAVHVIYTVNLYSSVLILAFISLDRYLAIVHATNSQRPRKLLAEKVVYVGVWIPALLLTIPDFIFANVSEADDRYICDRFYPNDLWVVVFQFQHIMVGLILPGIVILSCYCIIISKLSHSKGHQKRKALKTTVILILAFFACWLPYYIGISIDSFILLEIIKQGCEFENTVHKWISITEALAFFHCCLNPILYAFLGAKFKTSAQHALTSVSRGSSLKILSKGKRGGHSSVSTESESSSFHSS
# [2] = tested on: Human immunodeficiency virus 1; assay: Antiviral activity against HIV-1 NL4-3 infected in human TZM-bl cells assessed as inhibition of viral replication preincubated for 15 mins followed by viral infection and measured after 4320 mins by beta-gal screening assay; assay type: functional, organism-based; conditions: Human immunodeficiency virus 1, NL4-3, TZM
# [3] = molecular target: T1, C-X-C chemokine receptor type 4; assay: Antagonist activity at CXCR4 in human SUP-T1 cells assessed as inhibition of CXCL12-induced ERK phosphorylation preincubated with 15 mins followed by CXCL12 stimulation and measured after 12 mins by flow cytometry analysis; assay type: functional, cell-based
# [4] = molecular target: T1, C-X-C chemokine receptor type 4; assay: Antagonist activity at CXCR4 (unknown origin) expressed in human HEK293T cells co-expressing SmBiT-beta-arrestin2 preincubated with compound for 10 mins followed by CXCL12 stimulation and measured for 120 mins by beta-arrestin2 recruitment based NanoBiT assay; assay type: functional, cell-based
# [5] = tested on: SUP-T1; assay: Inhibition of cell migration in human SUP-T1 cells assessed as inhibition of CXCL12 mediated cell migration incubated for 4 hrs in presence of chemoattractant, CXCL12 by Transwell based CellTiter-Glo-chemotaxis assay; assay type: functional
# [6] = molecular target: T1, C-X-C chemokine receptor type 4; assay: Displacement of 12G5 antibody from CXCR4 in human SUP-T1 cells as fold increase in apparent IC50 in presence of human plasma media by flow cytometry based competitive analysis; assay type: cell-based; conditions: filed as antagonist
# [7] = molecular target: T1, C-X-C chemokine receptor type 4; assay: Displacement of 12G5 antibody from CXCR4 in human SUP-T1 cells as fold increase in apparent IC50 in presence of human plasma media incubated for 8 hrs by flow cytometry based competitive analysis; assay type: cell-based; conditions: filed as antagonist
# [8] = molecular target: T1, C-X-C chemokine receptor type 4; assay: Displacement of 12G5 antibody from CXCR4 in human SUP-T1 cells assessed as stability of the compound by measuring remaining activity in presence of human plasma media at 20 uM by flow cytometry based competitive analysis relative to control; assay type: cell-based
# [9] = Stability in C57BL/6 mouse plasma assessed as compound remaining at 3.5 mg/kg,iv administration and measured after 30 mins in presence of fluorescent labeled CXCR4 antibody and CXCR4 expressing human SUP-T1 cells by antibody-competition based flow cytometry assay; assay type: ADME, organism-based; conditions: in vivo, 0.5 h
# [10] = Toxicity in Zebrafish embryo incubated for 24 hrs by microscopic analysis; parameters: species or system Danio rerio; conditions: in vivo
# [11] = Stability in human plasma assessed as half life measured upto 120 mins by mass spectrometry method; assay type: ADME, cell-free
# [12] = molecular target: T1, C-X-C chemokine receptor type 4; assay: Displacement of 12G5 antibody from CXCR4 in human SUP-T1 cells in presence of human plasma media incubated for 2 hrs by flow cytometry based competitive analysis; assay type: cell-based
# [13] = molecular target: T1, C-X-C chemokine receptor type 4; assay: Displacement of 12G5 antibody from CXCR4 in human SUP-T1 cells in presence of human plasma media incubated for 8 hrs by flow cytometry based competitive analysis; assay type: cell-based
SMILES,IC50 [1],IC50 [2],IC50 [3],IC50 [4],inhibition [5],fold change (FC) [6],fold change (FC) [7],Activity [8],Stability [9],Activity [10],half-life [11],IC50 [12],IC50 [13]
CC[C@@H](C)[C@@H](N)C(=O)N[C@@H](CC(C)C)C(=O)N[C@@H](CCCNC(=N)N)C(=O)N[C@@H](Cc1c[nH]c2ccccc12)C(=O)N[C@@H](CO)C(=O)N[C@@H](CCCNC(=N)N)C(=O)N[C@@H](CCCCN)C(N)=O (H-[dI]LRWSRK-NH2),263 nM,1990 nM,6750 nM,92 nM,Dose-Dependent Effect,1,1.1,100%,Stable,Non-Toxic,–,–,–
CC[C@H](C)[C@H](N)C(=O)N[C@H](C(=O)N[C@@H](CCCNC(=N)N)C(=O)N[C@@H](Cc1c[nH]c2ccccc12)C(=O)N[C@@H](CO)C(=O)N[C@@H](CCCCN)C(=O)N[C@@H](CCCCN)C(=O)N[C@H](C(=O)N1CCC[C@H]1C(=O)N[C@@H](CS)C(=O)N[C@H](C(=O)N[C@@H](CO)C(=O)O)C(C)C)C(C)C)C(C)C (H-IVRWSKKVPCVS-OH),345 nM,562 nM,8050 nM,–,–,–,–,–,–,–,5.2 min,–,–
CC[C@H](C)[C@H](N)C(=O)N[C@@H](CC(C)C)C(=O)N[C@@H](CCCNC(=N)N)C(=O)N[C@@H](Cc1c[nH]c2ccccc12)C(=O)N[C@@H](CO)C(=O)N[C@@H](CCCNC(=N)N)C(=O)N[C@@H](CCCCN)C(=O)N[C@@H](CC(C)C)C(=O)N1CCC[C@H]1C(=O)N[C@@H](CS)C(=O)N[C@H](C(=O)N[C@@H](CO)C(=O)O)C(C)C,–,–,–,–,–,1,–,100%,Unstable,–,–,476 nM,1590 nM
